Each structure is given as a SMILES string. pIC50: −log10 of the molar value.

The target of the experiment is OGG1 (Homo sapiens (Human), UniProt O15527). The experiment is described as follows: In vitro OGG1 activity assay. It is filed as biochemical. Particulars: 800 pM OGG1 enzyme, 2 nM human APEX1, 10 nM 8-oxoA:C substrate. The method, then: Method 1: In Vitro OGG1 Activity Assay OGG1 activity is assayed by measuring the increase in fluorescence from a duplex oligonucleotide containing an OGG1 substrate and a fluorophore in close proximity that are quenched by a quencher on the complementary strand. […] OGG1 activity releases the substrate base from DNA by cleaving the N-glycosidic bond between base and deoxyribose. The resulting apurinic site is cleaved by an excessive amount APEX1 activity which cause the duplex to melt, which in turn cause the fluorophore to become unquenched. Compounds to be tested are dissolved in DMSO and nano-dispensed directly into black 384-well plates, followed by transfer of enzyme and substrate solutions. […] The fluorescent signal is recorded in a plate reader equipped with suitable filters to register fluorescein fluorescence.
Sequence of OGG1 (O15527 whole entry): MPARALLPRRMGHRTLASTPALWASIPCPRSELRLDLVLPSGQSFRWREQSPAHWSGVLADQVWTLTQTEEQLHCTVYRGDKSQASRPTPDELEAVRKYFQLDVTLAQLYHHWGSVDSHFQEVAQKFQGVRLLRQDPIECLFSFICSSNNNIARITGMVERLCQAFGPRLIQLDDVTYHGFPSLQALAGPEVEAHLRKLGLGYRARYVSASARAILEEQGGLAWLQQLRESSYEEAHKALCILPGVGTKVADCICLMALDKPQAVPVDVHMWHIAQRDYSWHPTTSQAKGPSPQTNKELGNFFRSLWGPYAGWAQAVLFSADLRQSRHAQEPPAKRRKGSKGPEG
On to `COc1ccc(NC(=O)[C@H]2CC[C@@H](n3c(=O)[nH]c4ccc(F)cc43)CC2)cc1C` [Example 217, Cis-4-(6-fluoro-2-oxo-2,3-dihydro-1H-1,3-benzodiazol-1-yl)-N-(4-methoxy-3-methylphenyl)cyclohexane-1-carboxamide], for which the pIC50 was 6.23.

As for `CCOc1cccc2c1[nH]c(=O)n2C1CCN(C(=O)Nc2ccc(I)cc2)CC1` [Example 18, 4-(4-Ethoxy-2-oxo-2,3-dihydro-1H-1,3-benzodiazol-1-yl)-N-(4-iodophenyl)piperidine-1-carboxamide], the pIC50 is 5.86.

`O=C(Nc1ccc(I)cc1)N1CCC(n2c(=O)[nH]c3c(C4CC4)cccc32)CC1` [Example 31, 4-(4-Cyclopropyl-2-oxo-2,3-dihydro-1H-1,3-benzodiazol-1-yl)-N-(4-iodophenyl)piperidine-1-carboxamide] had a pIC50 of 5.96.

As for `O=C(Nc1ccc(Cl)c(Cl)c1)N1CCC(n2c(=O)[nH]c3c(-c4ccc(C(=O)C(F)(F)F)cc4)cccc32)CC1` [Example 40, N-(3,4-dichlorophenyl)-4-{2-oxo-4-[4-(2,2,2-trifluoroacetyl)phenyl]-2,3-dihydro-1H-1,3-benzodiazol-1-yl}piperidine-1-carboxamide], the pIC50 is 5.20.

The compound `COc1cc(NC(=O)[C@H]2CC[C@@H](n3c(=O)[nH]c4c(N5CCC(NC(=O)C(C)(C)O)C5)cccc43)CC2)ccc1C` (stereo partly drawn) [Example 317, Cis-4-{4-[3-(2-hydroxy-2-methylpropanamido)pyrrolidin-1-yl]-2-oxo-2,3-dihydro-1H-1,3-benzodiazol-1-yl}-N-(3-methoxy-4-methylphenyl)cyclohexane-1-carboxamide] had a pIC50 of 7.41.

Regarding `COc1cc(NC(=O)[C@H]2CC[C@@H](n3c(=O)[nH]c4c(NC(=O)c5cn(C)cn5)cccc43)CC2)ccc1C` [Example 319, 1-Methyl-N-{2-oxo-1-[cis-4-[(3-methoxy-4-methylphenyl)carbamoyl]cyclohexyl]-2,3-dihydro-1H-1,3-benzodiazol-4-yl}-1H-imidazole-4-carboxamide], the pIC50 is 7.69. This pIC50 is 0.28 log units higher than that of the compound before.

Regarding `COc1ccc(NC(=O)[C@H]2CC[C@@H](n3c(=O)[nH]c4c(Br)cccc43)CC2)cc1C#N` [Example 161, (Cis)-4-(4-bromo-2-oxo-2,3-dihydro-1H-1,3-benzodiazol-1-yl)-N-(3-cyano-4-methoxyphenyl)cyclohexane-1-carboxamide], the pIC50 is 6.76.

Take `Nc1cccc(NC(=O)[C@H]2CC[C@@H](n3c(=O)[nH]c4c(Br)cccc43)CC2)c1` [Example 195, Cis-N-(3-aminophenyl)-4-(4-bromo-2-oxo-2,3-dihydro-1H-1,3-benzodiazol-1-yl)cyclohexane-1-carboxamide]: the negative logarithm of the IC50 (pIC50) is 5.45.

Compound `COc1ccc(NC(=O)N2CCC(n3c(=O)[nH]c4cc(C#N)ccc43)CC2)cc1Cl` [Example 178, N-(3-Chloro-4-methoxyphenyl)-4-(5-cyano-2-oxo-2,3-dihydro-1H-1,3-benzodiazol-1-yl)piperidine-1-carboxamide] had a pIC50 of 5.16.

Turning to `O=c1[nH]c2c(Br)cccc2n1[C@H]1CC[C@@H](C(=O)Nc2cccc3[nH]ccc23)CC1` [Example 145, (Cis)-4-(4-bromo-2-oxo-2,3-dihydro-1H-1,3-benzodiazol-1-yl)-N-(1H-indol-4-yl)cyclohexane-1-carboxamide], the pIC50 is 5.97.

Compound `NC(=O)c1ccc(NC(=O)[C@H]2CC[C@@H](n3c(=O)[nH]c4c(Br)cccc43)CC2)cc1` [Example 224, 4-[cis-4-(4-bromo-2-oxo-2,3-dihydro-1H-1,3-benzodiazol-1-yl)cyclohexaneamido]benzamide] gave a pIC50 of 5.44.

In turn, `COc1ccc(NC(=O)N2CCC(n3c(=O)[nH]c4c(-c5cnc6[nH]ncc6c5)cccc43)CC2)cc1Cl` [Example 101, N-(3-chloro-4-methoxyphenyl)-4-(2-oxo-4-{1H-pyrazolo[3,4-b]pyridin-5-yl}-2,3-dihydro-1H-1,3-benzodiazol-1-yl)piperidine-1-carboxamide] had a pIC50 of 5.65. Against the preceding compound, the pIC50 is 0.21 log units higher.

`COc1cc(NC(=O)N2CCC(n3c(=O)[nH]c4ccccc43)CC2)ccc1C` [Example 210, N-(3-Methoxy-4-methylphenyl)-4-(2-oxo-2,3-dihydro-1H-1,3-benzodiazol-1-yl)piperidine-1-carboxamide] had a pIC50 of 5.02.

`O=c1[nH]c2ccccc2n1[C@H]1CC[C@@H](C(=O)Nc2ccc(F)cc2)CC1` [Example 322, Cis-N-(4-fluorophenyl)-4-(2-oxo-2,3-dihydro-1H-benzo[d]imidazol-1-yl)cyclohexanecarboxamide] showed a pIC50 of 5.58.

Regarding `CCc1ccc(NC(=O)N2CCC(n3c(=O)[nH]c4c(Br)cccc43)CC2)cc1` [Example 42, 4-(4-Bromo-2-oxo-2,3-dihydro-1H-1,3-benzodiazol-1-yl)-N-(4-ethylphenyl)piperidine-1-carboxamide], the pIC50 was 5.62.

As for `COc1ccc(NC(=O)N2CCC(n3c(=O)[nH]c4c(C)ccnc43)CC2)cc1Cl` [Example 180, N-(3-Chloro-4-methoxyphenyl)-4-{7-methyl-2-oxo-1H,2H,3H-imidazo[4,5-b]pyridin-3-yl}piperidine-1-carboxamide], the pIC50 was 5.05.

Compound `COc1cc(NC(=O)[C@H]2CC[C@@H](n3c(=O)[nH]c4c(Br)cccc43)CC2)cc(OC)c1OC` [Example 193, Cis-4-(4-bromo-2-oxo-2,3-dihydro-1H-1,3-benzodiazol-1-yl)-N-(3,4,5-trimethoxyphenyl)cyclohexane-1-carboxamide] had a pIC50 of 5.86.

In turn, `COc1cc(NC(=O)[C@H]2CC[C@@H](n3c(=O)[nH]c4c(C(=O)N5CCN(CCN(C)C)CC5)cccc43)CC2)ccc1C` [Example 275, Cis-4-(4-{4-[2-(dimethylamino)ethyl]piperazine-1-carbonyl}-2-oxo-2,3-dihydro-1H-1,3-benzodiazol-1-yl)-N-(3-methoxy-4-methylphenyl)cyclohexane-1-carboxamide] showed a pIC50 of 6.77. Against the preceding compound, the pIC50 is 0.91 log units higher.

For `COc1cc(NC(=O)N2CCC(n3c(=O)[nH]c4c(C)cccc43)CC2)ccc1C` [Example 115, N-(3-methoxy-4-methylphenyl)-4-(4-methyl-2-oxo-2,3-dihydro-1H-1,3-benzodiazol-1-yl)piperidine-1-carboxamide], the pIC50 is 5.84.

Consider `O=c1[nH]c2c(Br)cccc2n1[C@H]1CC[C@@H](C(=O)Nc2cccc(Cl)c2)CC1` [Example 138, (Cis)-4-(4-bromo-2-oxo-2,3-dihydro-1H-1,3-benzodiazol-1-yl)-N-(3-chlorophenyl)cyclohexane-1-carboxamide], for which the pIC50 was 5.70. The pIC50 values of the last two compounds are within 0.2 log units of each other.

Compound `O=c1[nH]c2c(Br)cccc2n1[C@H]1CC[C@@H](C(=O)Nc2cccc(CO)c2)CC1` [Example 231, Cis-4-(4-bromo-2-oxo-2,3-dihydro-1H-1,3-benzodiazol-1-yl)-N-[3-(hydroxymethyl)phenyl]cyclohexane-1-carboxamide] showed a pIC50 of 5.09.

As for `COc1cc(NC(=O)[C@H]2CC[C@@H](n3c(=O)[nH]c4c(S(=O)(=O)CC(=O)O)cccc43)CC2)ccc1C` [Example 239, 2-({2-Oxo-1-[cis-4-[(3-methoxy-4-methylphenyl)carbamoyl]cyclohexyl]-2,3-dihydro-1H-1,3-benzodiazol-4-yl}sulfonyl)acetic acid], the pIC50 is 7.30. Against the preceding compound, the pIC50 is 2.21 log units higher.

Compound `Cc1cccc2c1[nH]c(=O)n2C1CCN(C(=O)Nc2ccc(Cl)cc2)CC1` [Example 7, N-(4-chlorophenyl)-4-(4-methyl-2-oxo-2,3-dihydro-1H-1,3-benzodiazol-1-yl)piperidine-1-carboxamide] showed a pIC50 of 5.96.

In turn, `COc1cc(NC(=O)N2CCC(n3c(=O)[nH]c4c(-c5cccnc5)cccc43)CC2)ccc1Cl` [Example 102, N-(4-chloro-3-methoxyphenyl)-4-[2-oxo-4-(pyridin-3-yl)-2,3-dihydro-1H-1,3-benzodiazol-1-yl]piperidine-1-carboxamide] gave a pIC50 of 5.56.

`COc1ccc(NC(=O)[C@H]2CC[C@@H](n3c(=O)[nH]c4c(OC)cccc43)CC2)cc1` [Example 205, Cis-4-(4-methoxy-2-oxo-2,3-dihydro-1H-1,3-benzodiazol-1-yl)-N-(4-methoxyphenyl)cyclohexane-1-carboxamide] showed a pIC50 of 7.13.

In turn, `COc1cccc2c1[nH]c(=O)n2C1CCN(C(=O)Nc2ccc(Cl)cc2)CC1` [Example 8, N-(4-chlorophenyl)-4-(4-methoxy-2-oxo-2,3-dihydro-1H-1,3-benzodiazol-1-yl)piperidine-1-carboxamide] gave a pIC50 of 5.81.

In turn, `COc1cc(NC(=O)[C@H]2CC[C@@H](n3c(=O)[nH]c4c(C(=O)N5CCCC5C(N)=O)cccc43)CC2)ccc1C` (stereo partly drawn) [Example 278, 1-{2-Oxo-1-[cis-4-[(3-methoxy-4-methylphenyl)carbamoyl]cyclohexyl]-2,3-dihydro-1H-1,3-benzodiazole-4-carbonyl}pyrrolidine-2-carboxamide] gave a pIC50 of 6.65. Compared with the last compound, the pIC50 is 0.84 log units higher.

In turn, `COc1ccc(NC(=O)N2CCC(n3c(=O)[nH]c4cc(F)ccc43)CC2)cc1Cl` [Example 173, N-(3-Chloro-4-methoxyphenyl)-4-(5-fluoro-2-oxo-2,3-dihydro-1H-1,3-benzodiazol-1-yl)piperidine-1-carboxamide] showed a pIC50 of 5.62.

`Cc1cc(NC(=O)[C@H]2CC[C@@H](n3c(=O)[nH]c4c(Br)cccc43)CC2)no1` [Example 169, (Cis)-4-(4-bromo-2-oxo-2,3-dihydro-1H-1,3-benzodiazol-1-yl)-N-(5-methyl-1,2-oxazol-3-yl)cyclohexane-1-carboxamide] showed a pIC50 of 5.04.

As for `COc1ccc(NC(=O)N2CCC(n3c(=O)[nH]c4c(-c5cccnc5)cccc43)CC2)cc1Cl` [Example 98, N-(3-chloro-4-methoxyphenyl)-4-[2-oxo-4-(pyridin-3-yl)-2,3-dihydro-1H-1,3-benzodiazol-1-yl]piperidine-1-carboxamide], the pIC50 is 5.58.

The values are drawn from patent US11970474B2, “Substituted benzodiazoles and use thereof in therapy” (THOMAS HELLEDAYS STIFTELSE FÖR MEDICINSK FORSKNING, priority 2018, dated 2024).
